Experimental data from ChEMBL document CHEMBL1909046, “DrugMatrix in vitro pharmacology data”.

Columns and labels:
[1] = DRUGMATRIX: Calcium Channel Type L, Dihydropyridine radioligand binding (ligand: [3H] Nitrendipine); type: cell membranes, Rattus norvegicus, Wistar, Cerebral cortex, Membrane; details: Not Active = under 50% inhibition at 10 µM
[2] = DRUGMATRIX: Sigma2 radioligand binding (ligand: [3H] Ifenprodil); type: cell membranes, Rattus norvegicus, Wistar, Brain, Membrane; details: Not Active = under 50% inhibition at 10 µM
[3] = DRUGMATRIX: GABAA, Muscimol, Central radioligand binding (ligand: [3H] Muscimol); type: cell membranes, Rattus norvegicus, Wistar, Brain, Membrane; details: Not Active = under 50% inhibition at 10 µM
[4] = DRUGMATRIX: GABAA, Chloride Channel, TBOB radioligand binding (ligand: [3H] TBOB); type: cell membranes, Rattus norvegicus, Wistar, Cerebral cortex, Membrane; details: Not Active = under 50% inhibition at 10 µM
[5] = DRUGMATRIX: Glutamate, AMPA radioligand binding (ligand: [3H] AMPA); type: cell membranes, Rattus norvegicus, Wistar, Cerebral cortex, Membrane; details: Not Active = under 50% inhibition at 10 µM
[6] = DRUGMATRIX: Platelet-Derived Growth Factor (PDGF) radioligand binding (ligand: [125I] PDGF); type: cell-based; details: nih3t3; Not Active = under 50% inhibition at 10 µM
[7] = DRUGMATRIX: Potassium Channel [KATP] radioligand binding (ligand: [3H] Glyburide); type: cell membranes, Membrane; details: hit-t15; Not Active = under 50% inhibition at 10 µM
[8] = molecular target: T1, Estrogen receptor (Homo sapiens, UniProt P03372); details: sf9; also: in other assays of this panel Not Active means under 50% inhibition at 10 µM
T1 sequence (P03372 whole entry): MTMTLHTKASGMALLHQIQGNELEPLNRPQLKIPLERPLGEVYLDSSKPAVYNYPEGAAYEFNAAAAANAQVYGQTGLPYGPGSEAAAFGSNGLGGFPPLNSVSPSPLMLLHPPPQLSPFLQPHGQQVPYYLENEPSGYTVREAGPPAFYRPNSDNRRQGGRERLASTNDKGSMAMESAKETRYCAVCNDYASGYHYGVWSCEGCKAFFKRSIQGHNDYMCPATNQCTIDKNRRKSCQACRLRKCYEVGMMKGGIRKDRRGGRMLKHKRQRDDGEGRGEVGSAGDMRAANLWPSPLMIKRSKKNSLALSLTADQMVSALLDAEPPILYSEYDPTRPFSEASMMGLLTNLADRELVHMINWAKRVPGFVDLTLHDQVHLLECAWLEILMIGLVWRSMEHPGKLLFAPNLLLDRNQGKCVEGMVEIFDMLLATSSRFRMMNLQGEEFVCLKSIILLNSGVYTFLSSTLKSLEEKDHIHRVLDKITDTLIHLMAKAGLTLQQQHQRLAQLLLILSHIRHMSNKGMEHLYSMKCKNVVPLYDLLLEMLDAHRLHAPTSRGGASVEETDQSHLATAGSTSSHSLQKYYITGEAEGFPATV

ZIRCONIUM(IV) CHLORIDE
Not Active: IC50 [1] | Ki [1] | IC50 [2] | Ki [2] | IC50 [3] | Ki [3] | IC50 [4] | Ki [4] | IC50 [5] | Ki [5] | IC50 [6] | Ki [6] | IC50 [7] | Ki [7] | IC50 [8] | Ki [8]
